Data published in ChEMBL document CHEMBL1201862, “PubChem BioAssay data set” (2004).
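Five concentrations, 48 hours, 96-well plates. GI50: concentration for 50% inhibition of growth.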 Calls of active or inactive are those of the source. Cut-off read from the data, not from the text of the source: active = GI50 up to about 1.1 µM and inactive = higher.

Experiments:
Assay in all cases: inhibition of tumour cell growth, NCI panel, 48 h
COLO 205 = system: COLO 205
HCT-15 = system: HCT-15
SF-295 = system: SF-295
UACC-62 = system: UACC-62
OVCAR-4 = system: OVCAR-4
SW-620 = system: SW-620
SF-268 = system: SF-268
ACHN = system: ACHN
OVCAR-8 = system: OVCAR-8
NCI-H23 = system: NCI-H23
NCI-H226 = system: NCI-H226
SK-MEL-5 = system: SK-MEL-5
HL-60 = system: HL-60
HT-29 = system: HT-29
M14 = system: M14
KM12 = system: KM12
OVCAR-5 = system: OVCAR-5
Malme-3M = system: Malme-3M
DMS-273 = system: DMS-273
CCRF-CEM = system: CCRF-CEM
RXF 393 = system: RXF 393
DMS-114 = system: DMS-114
HOP-62 = system: HOP-62
CAKI-1 = system: CAKI-1
LXFL 529 = system: LXFL 529
NCI-H522 = system: NCI-H522
LOX IMVI = system: LOX IMVI
SNB-75 = system: SNB-75
UO-31 = system: UO-31
HOP-18 = system: HOP-18
U-251 = system: U-251
M19-MEL = system: M19-MEL
NCI-H460 = system: NCI-H460
SK-MEL-2 = system: SK-MEL-2
SNB-19 = system: SNB-19
SK-OV-3 = system: SK-OV-3
OVCAR-3 = system: OVCAR-3
EKVX = system: EKVX
SN12C = system: SN12C
A549 = system: A549
HCT-116 = system: HCT-116
UACC-257 = system: UACC-257
SR = system: SR
KM-20L2 = system: KM-20L2
RXF 631 = system: RXF 631
SK-MEL-28 = system: SK-MEL-28
IGROV-1 = system: IGROV-1
786-0 = system: 786-0
A498 = system: A498
K562 = system: K562
MOLT-4 = system: MOLT-4
DLD-1 = system: DLD-1
HCC 2998 = system: HCC 2998
TK-10 = system: TK-10
SNB-78 = system: SNB-78
XF498 = system: XF498
HOP-92 = system: HOP-92
SF-539 = system: SF-539
RPMI-8226 = system: RPMI-8226

Measured: GI50

Cc1cccc2c1CCC21OC(=O)c2c1ccc1ccccc21 (stereo not given)
35.6 µM: HCT-15
inactive: COLO 205 47 µM | SF-295 55.5 µM | UACC-62 40.3 µM | OVCAR-4 52.6 µM | SW-620 39.2 µM | SF-268 > 100 µM | ACHN 79.1 µM | OVCAR-8 85.9 µM | NCI-H23 32.9 µM | NCI-H226 56.4 µM | SK-MEL-5 19.6 µM | HL-60 22.1 µM | HT-29 35.3 µM | M14 23.7 µM | KM12 56.9 µM | OVCAR-5 88.5 µM | Malme-3M 20 µM | DMS-273 32.7 µM | CCRF-CEM 38.6 µM | RXF 393 64 µM | DMS-114 24.8 µM | HOP-62 70.1 µM | CAKI-1 34.5 µM | LXFL 529 47.6 µM | NCI-H522 > 100 µM | LOX IMVI 54.8 µM | SNB-75 82.6 µM | UO-31 47.4 µM | HOP-18 42 µM | U-251 45.8 µM | M19-MEL 49 µM | NCI-H460 42.2 µM | SK-MEL-2 24.5 µM | SNB-19 90.4 µM | SK-OV-3 37.3 µM | OVCAR-3 26 µM | EKVX 68.5 µM | SN12C > 100 µM | A549 > 100 µM | HCT-116 52.2 µM | UACC-257 25.8 µM | SR 29.2 µM | KM-20L2 53.8 µM | RXF 631 24.4 µM | SK-MEL-28 58.2 µM | IGROV-1 55.2 µM | 786-0 83.9 µM | A498 16.8 µM | K562 21.7 µM | MOLT-4 24.3 µM | DLD-1 83.9 µM | HCC 2998 29.4 µM | TK-10 36.1 µM

N#Cc1ccccc1NC(=O)C(=O)C(C(=O)c1ccncc1)C1OC(=O)c2ccccc21 (stereo not given)
inactive: COLO 205 > 100 µM | SF-295 > 100 µM | UACC-62 > 100 µM | OVCAR-4 > 100 µM | SW-620 > 100 µM | SF-268 > 100 µM | ACHN > 100 µM | OVCAR-8 > 100 µM | NCI-H23 > 100 µM | NCI-H226 > 100 µM | SK-MEL-5 > 100 µM | HL-60 > 100 µM | HT-29 > 100 µM | M14 > 100 µM | KM12 > 100 µM | OVCAR-5 > 100 µM | Malme-3M > 100 µM | SNB-78 > 100 µM | CCRF-CEM 79.3 µM | RXF 393 > 100 µM | DMS-114 > 100 µM | HOP-62 > 100 µM | CAKI-1 > 100 µM | LXFL 529 > 100 µM | XF498 > 100 µM | NCI-H522 > 100 µM | LOX IMVI > 100 µM | SNB-75 > 100 µM | HOP-92 > 100 µM | UO-31 > 100 µM | HOP-18 > 100 µM | U-251 > 100 µM | M19-MEL > 100 µM | NCI-H460 > 100 µM | SNB-19 > 100 µM | SK-OV-3 > 100 µM | OVCAR-3 > 100 µM | EKVX > 100 µM | SN12C > 100 µM | A549 > 100 µM | HCT-116 > 100 µM | UACC-257 > 100 µM | SR > 100 µM | KM-20L2 > 100 µM | RXF 631 > 100 µM | SF-539 > 100 µM | SK-MEL-28 > 100 µM | IGROV-1 > 100 µM | 786-0 > 100 µM | A498 > 100 µM | K562 > 100 µM | DLD-1 > 100 µM | HCC 2998 > 100 µM | TK-10 > 100 µM
> 100 µM: HCT-15

CCCC(S(=O)(=O)c1ccccc1)S(=O)(=O)c1ccccc1
> 100 µM: HCT-15
inactive: SF-295 83.4 µM | UACC-62 > 100 µM | OVCAR-4 > 100 µM | SW-620 > 100 µM | ACHN > 100 µM | OVCAR-8 > 100 µM | NCI-H23 > 100 µM | NCI-H226 86.7 µM | SK-MEL-5 > 100 µM | HL-60 > 100 µM | HT-29 > 100 µM | M14 > 100 µM | KM12 > 100 µM | OVCAR-5 > 100 µM | Malme-3M > 100 µM | SNB-78 > 100 µM | DMS-273 > 100 µM | CCRF-CEM > 100 µM | RXF 393 > 100 µM | DMS-114 > 100 µM | HOP-62 > 100 µM | CAKI-1 > 100 µM | LXFL 529 > 100 µM | XF498 > 100 µM | SNB-75 > 100 µM | UO-31 > 100 µM | U-251 > 100 µM | M19-MEL > 100 µM | NCI-H460 > 100 µM | SK-MEL-2 > 100 µM | SK-OV-3 > 100 µM | OVCAR-3 > 100 µM | EKVX > 100 µM | A549 > 100 µM | RPMI-8226 > 100 µM | HCT-116 > 100 µM | UACC-257 > 100 µM | KM-20L2 > 100 µM | RXF 631 > 100 µM | SF-539 > 100 µM | SK-MEL-28 > 100 µM | IGROV-1 > 100 µM | 786-0 > 100 µM | A498 > 100 µM | K562 > 100 µM | MOLT-4 > 100 µM | DLD-1 > 100 µM | HCC 2998 > 100 µM | TK-10 > 100 µM

COc1ccccc1NC(=O)C(=O)C(C(=O)c1ccccc1F)C1OC(=O)c2ccccc21 (stereo not given)
25 µM: HCT-15
inactive: COLO 205 19.2 µM | SF-295 43.1 µM | UACC-62 15.8 µM | OVCAR-4 28.1 µM | SW-620 32.9 µM | SF-268 29.9 µM | ACHN 39.4 µM | OVCAR-8 19.9 µM | NCI-H23 20 µM | NCI-H226 15.6 µM | SK-MEL-5 39.1 µM | HL-60 20.3 µM | HT-29 23.9 µM | M14 27.5 µM | KM12 30.1 µM | OVCAR-5 45.1 µM | SNB-78 25.5 µM | DMS-273 23.9 µM | CCRF-CEM 16.1 µM | RXF 393 42.9 µM | DMS-114 23.1 µM | HOP-62 30.5 µM | CAKI-1 34.5 µM | LXFL 529 24.9 µM | XF498 14.1 µM | NCI-H522 16.9 µM | LOX IMVI 20.8 µM | SNB-75 21.9 µM | HOP-92 42.6 µM | UO-31 32.4 µM | U-251 14.3 µM | M19-MEL 15.8 µM | NCI-H460 25.8 µM | SK-MEL-2 17.6 µM | SNB-19 19.3 µM | SK-OV-3 35.6 µM | EKVX 27.9 µM | SN12C 24.2 µM | A549 45.3 µM | RPMI-8226 20.2 µM | HCT-116 22 µM | UACC-257 54.8 µM | SR 22.2 µM | KM-20L2 24.9 µM | RXF 631 18.7 µM | SF-539 20.8 µM | SK-MEL-28 46.3 µM | IGROV-1 52.6 µM | A498 59.8 µM | K562 32.7 µM | MOLT-4 15.5 µM | DLD-1 33.3 µM | HCC 2998 14.8 µM | TK-10 50 µM

CCCCCC/C(CC(=O)CCC(=O)NCCc1ccccc1)=N\Nc1ccc([N+](=O)[O-])cc1[N+](=O)[O-]
69.3 µM: HCT-15
inactive: COLO 205 64.3 µM | SF-295 > 100 µM | UACC-62 30.5 µM | SW-620 68.1 µM | SF-268 71.6 µM | ACHN 97.7 µM | OVCAR-8 89.3 µM | NCI-H23 45 µM | NCI-H226 60.4 µM | SK-MEL-5 70.1 µM | HL-60 27.9 µM | HT-29 > 100 µM | M14 > 100 µM | KM12 67.8 µM | OVCAR-5 > 100 µM | Malme-3M > 100 µM | SNB-78 > 100 µM | DMS-273 > 100 µM | CCRF-CEM 22.1 µM | RXF 393 > 100 µM | DMS-114 20 µM | HOP-62 > 100 µM | CAKI-1 > 100 µM | LXFL 529 49.3 µM | NCI-H522 39.9 µM | LOX IMVI 34.7 µM | HOP-92 41.7 µM | UO-31 61.9 µM | HOP-18 59.8 µM | U-251 97.1 µM | M19-MEL 54.5 µM | NCI-H460 > 100 µM | SK-MEL-2 > 100 µM | SNB-19 > 100 µM | SK-OV-3 > 100 µM | OVCAR-3 51.3 µM | EKVX 38.7 µM | SN12C 82 µM | A549 87.7 µM | RPMI-8226 27 µM | HCT-116 36.7 µM | UACC-257 74.8 µM | SR 20.6 µM | KM-20L2 > 100 µM | RXF 631 64.6 µM | SF-539 > 100 µM | SK-MEL-28 > 100 µM | IGROV-1 > 100 µM | 786-0 > 100 µM | A498 79.8 µM | K562 38.1 µM | MOLT-4 21.4 µM | DLD-1 63.7 µM | HCC 2998 > 100 µM | TK-10 > 100 µM
